Results reported in article PMC8948245, “Mechanistic insights into the regulation of plant phosphate homeostasis by the rice SPX2 – PHR2 complex” (Nature Communications, 2022).
Where a chain is given by its changes, count along the chain named. In names and notes the source's numbering stands. One block for each molecule: values may come before it.

How the values were obtained:
[1] = molecular target: T1, SPX2^1–280/PHR2^225–362 (rice) (Oryza sativa, UniProt Q6Z784, K143A/K147A); assay: co-expression coupled Ni-NTA pull-down (InsP6-dependent SPX2-PHR2 association); assay type: biochemical; conditions: 1 mM InsP6, pH 8.0, 150 mM NaCl; indirect read-out
T1 construct: untagged full-length SPX2 (residues 1-280) co-expressed with 8xHis-tagged PHR2 225-362 in E. coli; 2:2 complex; with Protein PHOSPHATE STARVATION RESPONSE 2

[2] = molecular target: T2, SPX2^1–280/PHR2^225–362 (rice) (Oryza sativa, UniProt Q6Z784, L28A); assay: as above; assay type: biochemical; conditions: 1 mM InsP6, pH 8.0, 150 mM NaCl; indirect read-out
T2 construct: untagged full-length SPX2 (residues 1-280) co-expressed with 8xHis-tagged PHR2 225-362 in E. coli; 2:2 complex; with Protein PHOSPHATE STARVATION RESPONSE 2

OsSPX4 = molecular target: T3, OsSPX4 (Oryza sativa, UniProt Q10B79); assay: analytical SEC (profile shift with InsP6); assay type: binding; conditions: pH 8.0, 150 mM NaCl
T3 construct: gene SPX4; full-length, N-terminal 6xHis tag removed by drICE protease; E. coli BL21(DE3)
T3 sequence (Q10B79 1-320): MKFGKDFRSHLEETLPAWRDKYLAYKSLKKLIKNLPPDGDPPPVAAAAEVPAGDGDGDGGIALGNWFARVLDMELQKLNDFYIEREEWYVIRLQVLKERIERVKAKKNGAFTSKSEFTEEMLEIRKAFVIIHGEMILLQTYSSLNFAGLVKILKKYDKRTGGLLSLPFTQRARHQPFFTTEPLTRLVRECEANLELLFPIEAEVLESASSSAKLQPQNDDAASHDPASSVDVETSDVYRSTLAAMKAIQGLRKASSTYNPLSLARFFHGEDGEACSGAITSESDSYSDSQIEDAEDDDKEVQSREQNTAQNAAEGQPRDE

[3] = molecular target: T4, SPX2^1–280/PHR2^225–362 (rice) (Oryza sativa, UniProt Q6Z784, Y25F); assay: co-expression coupled Ni-NTA pull-down (InsP6-dependent SPX2-PHR2 association); assay type: biochemical; conditions: 1 mM InsP6, pH 8.0, 150 mM NaCl; indirect read-out
T4 construct: untagged full-length SPX2 (residues 1-280) co-expressed with 8xHis-tagged PHR2 225-362 in E. coli; 2:2 complex; with Protein PHOSPHATE STARVATION RESPONSE 2

AtSPX2 = molecular target: T5, AtSPX2 (Arabidopsis thaliana, UniProt O48781); assay: analytical SEC (profile shift with InsP6); assay type: binding; conditions: pH 8.0, 150 mM NaCl
T5 construct: gene SPX2; full-length, N-terminal 6xHis tag removed by drICE protease; E. coli BL21(DE3)
T5 sequence (O48781 1-287): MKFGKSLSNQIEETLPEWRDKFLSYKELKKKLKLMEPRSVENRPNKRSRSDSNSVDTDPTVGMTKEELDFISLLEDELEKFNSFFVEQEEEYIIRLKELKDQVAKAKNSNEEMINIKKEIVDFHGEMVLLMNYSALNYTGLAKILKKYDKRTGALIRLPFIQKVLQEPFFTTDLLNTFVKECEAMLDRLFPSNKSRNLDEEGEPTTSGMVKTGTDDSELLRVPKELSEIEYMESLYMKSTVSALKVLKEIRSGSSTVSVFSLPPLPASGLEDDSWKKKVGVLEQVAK

OsSPX2^1-267/Δ47-64 = molecular target: T6, OsSPX2^1-267/Δ47-64 (Oryza sativa, UniProt Q6Z784, DEL47-64); assay: analytical SEC and AUC (change of oligomeric state); assay type: binding; conditions: AUC with or without 1 mM InsP6, pH 8.0, 150 mM NaCl, 18 °C; no PHR2
T6 construct: gene SPX2; residues 1-267 lacking 47-64, C-terminal 8xHis tag, excess SPX2 separated from co-expressed PHR2 231-362; E. coli; monomer with InsP6
T6 sequence (Q6Z784 with tags, fused parts or gaps DEL47-64): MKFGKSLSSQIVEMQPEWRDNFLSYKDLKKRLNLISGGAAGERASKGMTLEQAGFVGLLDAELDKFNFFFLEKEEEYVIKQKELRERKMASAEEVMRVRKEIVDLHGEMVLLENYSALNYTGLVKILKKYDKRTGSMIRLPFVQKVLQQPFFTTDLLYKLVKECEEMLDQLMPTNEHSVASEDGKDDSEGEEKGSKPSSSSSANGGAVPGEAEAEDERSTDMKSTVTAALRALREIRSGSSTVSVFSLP

OsSPX1 = molecular target: T7, OsSPX1 (Oryza sativa, UniProt Q69XJ0); assay: analytical SEC (profile shift with InsP6); assay type: binding; conditions: pH 8.0, 150 mM NaCl
T7 construct: gene SPX1; full-length, N-terminal 6xHis tag removed by drICE protease; E. coli BL21(DE3)
T7 sequence (Q69XJ0 1-295): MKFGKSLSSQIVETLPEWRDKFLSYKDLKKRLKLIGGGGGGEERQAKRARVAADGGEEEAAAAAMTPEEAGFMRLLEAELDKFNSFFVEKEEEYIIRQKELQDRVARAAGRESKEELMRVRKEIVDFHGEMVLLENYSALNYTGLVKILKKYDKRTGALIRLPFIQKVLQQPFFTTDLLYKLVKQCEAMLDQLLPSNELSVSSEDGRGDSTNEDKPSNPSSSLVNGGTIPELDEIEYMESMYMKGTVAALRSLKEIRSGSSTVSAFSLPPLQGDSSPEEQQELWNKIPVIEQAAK

AtSPX4 = molecular target: T8, AtSPX4 (Arabidopsis thaliana, UniProt Q94A21); assay: analytical SEC (profile shift with InsP6); assay type: binding; conditions: pH 8.0, 150 mM NaCl
T8 construct: gene SPX4; full-length, N-terminal 6xHis tag removed by drICE protease; E. coli BL21(DE3)
T8 sequence (Q94A21 1-318): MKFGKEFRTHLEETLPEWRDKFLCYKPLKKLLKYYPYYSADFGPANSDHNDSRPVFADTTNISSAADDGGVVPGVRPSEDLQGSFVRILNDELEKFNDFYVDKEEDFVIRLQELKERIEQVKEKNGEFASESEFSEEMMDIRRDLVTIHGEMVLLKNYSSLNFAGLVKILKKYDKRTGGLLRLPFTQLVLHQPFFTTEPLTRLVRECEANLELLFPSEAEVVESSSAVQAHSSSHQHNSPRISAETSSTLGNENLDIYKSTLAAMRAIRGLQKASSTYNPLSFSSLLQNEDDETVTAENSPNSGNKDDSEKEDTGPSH

[4] = molecular target: T9, SPX2^1–280/PHR2^225–362 (rice) (Oryza sativa, UniProt Q6Z784, K29A); assay: co-expression coupled Ni-NTA pull-down (InsP6-dependent SPX2-PHR2 association); assay type: biochemical; conditions: 1 mM InsP6, pH 8.0, 150 mM NaCl; indirect read-out
T9 construct: untagged full-length SPX2 (residues 1-280) co-expressed with 8xHis-tagged PHR2 225-362 in E. coli; 2:2 complex; with Protein PHOSPHATE STARVATION RESPONSE 2

[5] = molecular target: T10, SPX2^1–280/PHR2^225–362 (rice) (Oryza sativa, UniProt Q6Z784, Y25A); assay: as above; assay type: biochemical; conditions: 1 mM InsP6, pH 8.0, 150 mM NaCl; indirect read-out
T10 construct: untagged full-length SPX2 (residues 1-280) co-expressed with 8xHis-tagged PHR2 225-362 in E. coli; 2:2 complex; with Protein PHOSPHATE STARVATION RESPONSE 2

[6] = molecular target: T11, His-tagged PHR2^225–362 (rice PHR2, MYB domain and CC domain) (rice (Oryza sativa), UniProt Q6Z156 225-362); assay: AUC; sedimentation velocity of the purified SPX2/PHR2 complex, 25 mM Tris-HCl pH 8.0, 150 mM NaCl, 1 mM InsP6, 18 °C, 0.7 mg ml^-1; conditions: both partners purified
T11 construct: pET21b, C-terminal 8×His tag; codon-optimised synthetic cDNA; also called PHR2-His; source: E. coli BL21(DE3), co-expressed with SPX2; not shown: 8×His, C-terminal, kept

[7] = molecular target: the molecule itself; assay: cross-linking; mixture of PHR2^225–362-His complexes with SPX2-flag homodimer and SPX2/SPX2-flag heterodimer from the tandem pull-down; about 30 μM with 200 μM M2M, room temperature, 30 min; SDS-PAGE with or without 100 mM DTT
[8] = molecular target: the molecule itself; assay: cross-linking; about 30 μM purified SPX2/PHR2^225–362 complex with 200 μM M2M, room temperature, 30 min, 25 mM Tris–HCl pH 8.0, 150 mM NaCl, 1 mM InsP6; SDS-PAGE with or without 100 mM DTT
[9] = molecular target: PHR2 MYB domain (crystal) (Oryza sativa, UniProt B8B5N8 180-313); assay: X-ray crystallography, 2.7 A; EMSA: 10 nM FAM-DNA, 0.3375-0.8 uM PHR2, 25 mM Tris-HCl pH 8.0, 150 mM NaCl, 5 mM DTT, 10% glycerol, 200 ng/ml heparin, 4 C, 30 min; crystal: 13% PEG 3350, 0.1; conditions: protein: recombinant; tags: C-terminal 8xHis (general PHR2 cloning); chain copies: 2; 5' overhang 1 nt on each strand, 15 bp
[10] = molecular target: the molecule itself; assay: crystal structure; mH2A1.1^181–366-tagged SPX2^1-202/∆47-59 / InsP6 / PHR2^225–362 ternary complex, 10 mM InsP6 supplied, hanging drop, 18 °C, 3.1 Å
PHR2 MYB-CC K292D = PHR2 MYB-CC K292D (Oryza sativa, UniProt B8B5N8 225-362, K292D); assay: EMSA; EMSA: 10 nM FAM-DNA, 0.3375-0.8 uM PHR2, 25 mM Tris-HCl pH 8.0, 150 mM NaCl, 5 mM DTT, 10% glycerol, 200 ng/ml heparin, 4 C, 30 min; crystal: 13% PEG 3350, 0.1; conditions: protein: recombinant; tags: C-terminal 8xHis; chain copies: 2; blunt, 30 bp
Chain of PHR2 MYB-CC K292D (B8B5N8 225-362 K292D): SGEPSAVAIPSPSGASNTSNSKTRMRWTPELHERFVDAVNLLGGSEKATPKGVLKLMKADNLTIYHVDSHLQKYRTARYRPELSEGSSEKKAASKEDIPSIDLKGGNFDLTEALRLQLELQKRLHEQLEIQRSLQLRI

T11 sequence (Q6Z156 225-362): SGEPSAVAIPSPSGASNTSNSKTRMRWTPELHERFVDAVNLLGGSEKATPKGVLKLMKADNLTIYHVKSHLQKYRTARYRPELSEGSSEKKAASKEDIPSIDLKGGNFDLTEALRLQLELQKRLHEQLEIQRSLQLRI
T2 sequence (Q6Z784 whole entry L28A, the tested form may be a part): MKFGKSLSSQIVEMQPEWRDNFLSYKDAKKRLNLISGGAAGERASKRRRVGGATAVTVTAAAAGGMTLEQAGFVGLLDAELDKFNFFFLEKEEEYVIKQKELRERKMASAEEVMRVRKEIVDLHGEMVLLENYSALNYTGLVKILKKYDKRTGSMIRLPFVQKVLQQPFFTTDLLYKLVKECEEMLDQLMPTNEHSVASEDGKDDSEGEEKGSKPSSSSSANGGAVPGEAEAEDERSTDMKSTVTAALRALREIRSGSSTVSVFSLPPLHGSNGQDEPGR
T2 sequence (Q6Z156 225-362 partner): as the sequence (Q6Z156 225-362) above
Chain of PHR2 MYB domain (crystal) (B8B5N8 180-313): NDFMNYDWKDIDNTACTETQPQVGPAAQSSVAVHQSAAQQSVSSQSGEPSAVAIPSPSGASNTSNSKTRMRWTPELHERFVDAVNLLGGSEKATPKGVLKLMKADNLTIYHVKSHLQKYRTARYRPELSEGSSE
T10 sequence (Q6Z784 whole entry Y25A, the tested form may be a part): as the sequence (Q6Z784 whole entry L28A, the tested form may be a part) above, with Y25A, A28L counted along it
T10 sequence (Q6Z156 225-362 partner): as the sequence (Q6Z156 225-362) above
T1 sequence (Q6Z784 whole entry K143A/K147A, the tested form may be a part): as the sequence (Q6Z784 whole entry L28A, the tested form may be a part) above, with A28L, K143A, K147A counted along it
T1 sequence (Q6Z156 225-362 partner): as the sequence (Q6Z156 225-362) above
T9 sequence (Q6Z784 whole entry K29A, the tested form may be a part): as the sequence (Q6Z784 whole entry L28A, the tested form may be a part) above, with A28L, K29A counted along it
T9 sequence (Q6Z156 225-362 partner): as the sequence (Q6Z156 225-362) above
T4 sequence (Q6Z784 whole entry Y25F, the tested form may be a part): as the sequence (Q6Z784 whole entry L28A, the tested form may be a part) above, with Y25F, A28L counted along it
T4 sequence (Q6Z156 225-362 partner): as the sequence (Q6Z156 225-362) above

Molecule: O=P(O)(O)O[C@H]1[C@H](OP(=O)(O)O)[C@@H](OP(=O)(O)O)[C@H](OP(=O)(O)O)[C@@H](OP(=O)(O)O)[C@H]1OP(=O)(O)O [InsP6]
co-expression coupled Ni-NTA pull-down (InsP6-dependent SPX2-PHR2 association) [1]: strongly reduced or abolished by the Y25F, Y25A, L28A, K29A, or K143A/K147A substitutions of SPX2 | co-expression coupled Ni-NTA pull-down (InsP6-dependent SPX2-PHR2 association) [2]: strongly reduced or abolished by the Y25F, Y25A, L28A, K29A, or K143A/K147A substitutions of SPX2 | analytical SEC (profile shift with InsP6) (OsSPX4): their SEC profiles differ strongly in the presence of InsP6 | co-expression coupled Ni-NTA pull-down (InsP6-dependent SPX2-PHR2 association) [3]: strongly reduced or abolished by the Y25F, Y25A, L28A, K29A, or K143A/K147A substitutions of SPX2 | analytical SEC (profile shift with InsP6) (AtSPX2): their SEC profiles differ strongly in the presence of InsP6 | analytical SEC and AUC (change of oligomeric state) (OsSPX2^1-267/Δ47-64): InsP6 binding appears to stabilize the domain into a monomeric state | analytical SEC (profile shift with InsP6) (OsSPX1): their SEC profiles differ strongly in the presence of InsP6 | analytical SEC (profile shift with InsP6) (AtSPX4): their SEC profiles differ strongly in the presence of InsP6 | co-expression coupled Ni-NTA pull-down (InsP6-dependent SPX2-PHR2 association) [4]: strongly reduced or abolished by the Y25F, Y25A, L28A, K29A, or K143A/K147A substitutions of SPX2 | co-expression coupled Ni-NTA pull-down (InsP6-dependent SPX2-PHR2 association) [5]: strongly reduced or abolished by the Y25F, Y25A, L28A, K29A, or K143A/K147A substitutions of SPX2

stoichiometry N [6]: 1 SPX2:PHR2 ratio (2:2)
B1: full-length rice SPX2 (SPX2^1–280), untagged (natural protein, rice (Oryza sativa), UniProt Q6Z784 1-280, looked up)
chain: MKFGKSLSSQIVEMQPEWRDNFLSYKDLKKRLNLISGGAAGERASKRRRVGGATAVTVTAAAAGGMTLEQAGFVGLLDAELDKFNFFFLEKEEEYVIKQKELRERKMASAEEVMRVRKEIVDLHGEMVLLENYSALNYTGLVKILKKYDKRTGSMIRLPFVQKVLQQPFFTTDLLYKLVKECEEMLDQLMPTNEHSVASEDGKDDSEGEEKGSKPSSSSSANGGAVPGEAEAEDERSTDMKSTVTAALRALREIRSGSSTVSVFSLPPLHGSNGQDEPGR
notes: rice (Oryza sativa) SPX2 (OsSPX2), full length, residues 1-280; pBB75 vector without any tag; also called OsSPX2; source: E. coli BL21(DE3), co-expressed with PHR2

B2: SPX2^K106C-flag (natural protein, rice (Oryza sativa), UniProt Q6Z784 1-280, looked up)
chain: B1 chain with K106C
notes: rice (Oryza sativa) SPX2, residues 1-280, K106C; source: Ni-NTA pull-down and flag pull-down in tandem; not shown: 3×flag, N-terminal, kept
binding result [7]: binds

B3: SPX2^1-280_K106C (natural protein, rice (Oryza sativa), UniProt Q6Z784 1-280, looked up)
chain: B1 chain with K106C
notes: rice (Oryza sativa) SPX2, residues 1-280, K106C; also called SPX2^K106C
binding result [8]: binds

B4: P1BS crystal DNA (dsDNA)
DNA 1: GCTTGAGGATATCCGA
DNA 2: CTCGGATATCCTCAAG
binding result [9]: binds

stoichiometry N [6]: 1 SPX2:PHR2 ratio (2:2)
B5: mH2A1.1^181–366-tagged SPX2^1-202/∆47-59 (domain or fragment, rice (Oryza sativa), UniProt Q6Z784 1-202, looked up)
chain: MKFGKSLSSQIVEMQPEWRDNFLSYKDLKKRLNLISGGAAGERASKAAAAGGMTLEQAGFVGLLDAELDKFNFFFLEKEEEYVIKQKELRERKMASAEEVMRVRKEIVDLHGEMVLLENYSALNYTGLVKILKKYDKRTGSMIRLPFVQKVLQQPFFTTDLLYKLVKECEEMLDQLMPTNEHSVASEDG
notes: rice (Oryza sativa) SPX2, residues 1-202 with residues 47-59 (R47-T59) deleted; also called crystallized construct
stoichiometry N [10]: 2

B6: FAM P1BS EMSA probe (dsDNA)
DNA 1: AAGCTTGAATATGCAATGGAATATGCTTAG
DNA 2: CTAAGCATATTCCATTGCATATTCAAGCTT
binding result (PHR2 MYB-CC K292D): no binding
